Numbered stars: 1 amine (or outer) side, 2 acyl side, 3 side chain; on linkers, the order of the positions; unused ones are H or OH. Side chains are listed from the residue outwards. Ends that are not written are not given here. * marks the point of attachment. γGlu = O=C(O)[C@H](CCC(=O)[*:2])N[*:1]; Palmitoyl = CCCCCCCCCCCCCCCC(=O)*
Columns and labels:
C57BL/6J mice [1] = experiment: Acute food intake in C57BL/6J mice; format: in vivo; conditions: for Total food intake (g/animal): Day 0: 0-[…] (lights off), mean ± SEM
Description: The C57BL/6J mice arrived 7 days prior to the initiation of the study. During these days, animals were handled daily to accustom them to the experimental paradigm. At Day −1, the mice were randomised according to body weight to participate in one of following drug treatment groups (n=6-8 in each group): Group 1: vehicle. […] Group 3-5: SEQ ID NO 3; 3.0; 1.0; 0.3 mg/kg. Group 6-8: SEQ ID NO 4; 3.0; 1.0; 0.3 mg/kg. Group 9-11: SEQ ID NO 5; 3.0; 1.0; 0.3 mg/kg. Group 12-14: SEQ ID NO 6; 3.0; 1.0; 0.3 mg/kg. Group 15-17: SEQ ID NO 7; 3.0; 1.0; 0.3 mg/kg. Three days prior to initiation of dosing, all animals were handled daily and accustomed to the experimental conditions by subcutaneous mock injections (i.e. nipping the skin of the back). Baseline food intake was monitored four days prior to the study. Mice were randomized according to body weight on Day −1. Animals were subjected to two separate injections. First acute dose was administered prior to lights out at Day 0 and food intake was monitored 24 hours post dosing. On Day 3, mice were re-randomised into new treatment groups and dosed prior to lights out. Food intake was monitored 24 hours post dosing. Body weight was measured daily from Day −5 and throughout the study. The study was terminated on Day 5. […] Dosing took place prior to lights out in the afternoon (between 13.30 and 14.00). Doses were administered subcutaneously (dose volume 5 ml/kg). Food intake data was collected using the HM-2 system, an online computerized feeding system using digital weighing cells. Food intake and body weight were measured from Day −7 and throughout the study. […]

C57BL/6J mice [2] = experiment: GLP1R-GLP2R dual agonist compound study: gut wet weight; format: in vivo
Source text: On study day 8, the mice were terminated and the GI tract was removed for determination of the gut wet weight. The gut wet weight results are listed below in Table 12.

C57BL/6J mice [3] = experiment: GLP1R-GLP2R dual agonist compound study: oral glucose tolerance test; format: in vivo
Description: On day 7, an oral glucose tolerance test (OGTT) was performed. Animals were mildly fasted as all food was removed 4 hours prior to the oral glucose load. Vehicle (SC) and compounds were administered subcutaneously (SC) 2 hours prior to the OGTT. At t=0 mice received an oral glucose load (2 g/kg; 4 ml/kg; 500 mg/ml, Fresenius Kabi, Sweden). Glucose was given as gavage via a gastrically-placed tube connected to a syringe ensuring accurate dosing. Blood glucose was measured from tail vein blood before glucose (at t=−120 and 0 min, baseline) and after glucose administration at t=15, 30, 60 and 120 min. Blood samples (tail vein) was collected into 10 μl heparinized glass capillary tubes and immediately suspended in buffer (0.5 ml of glucose/lactate system solution (EKF-diagnostics, Germany) and analyzed for glucose on the test day using a BIOSEN c-Line glucose meter (EKF-diagnostics, Germany) according to manufacturer's instructions. Results from the OGTT are listed below in Table 11.

C57BL/6J mice [4] = experiment: GLP1R-GLP2R dual agonist compound study: cumulative food intake; format: in vivo
Source text: Forty (40, n=10, 4 groups) male C57BL/6J mice obtained from Taconic, Denmark, were used. At the time of the experiment, the mice had reached an age of 9-10 weeks. The mice were acclimatized for one week in their new environment and offered regular chow diet (Altromin 1324, Brogaarden A/S, Denmark) and domestic quality tap water. Animals were housed two per cage during the study, in a light-, temperature-, and humidity-controlled room (12-hour light: 12-hour dark cycle, lights on/off at 4 AM/4 PM hour; 22±1° C.; 50±10% relative humidity). […] Animals were uniquely identified with implantable microchips (Pet ID Microchip, E-vet) in all mice upon arrival. Animals were identified using the WS-2 weight station (MBrose ApS, Faaborg, Denmark) connected to a laptop running the HM02Lab software (Ellegaard Systems, Faaborg, Denmark). The HM02Lab software matches the body weight with ID and calculates the dose directly based on the body weight. All mice were handled for 3 days prior to the experiment to acclimatize the animals to handling and injections.

lean C57BL/6J mice = experiment: Sub-acute effect on body weight in lean C57BL/6J mice; format: in vivo; conditions: for Body weight change in percent to baseline body weight: 50 nmol/kg BID SC, mean ± S.E.M.
Description: Eighteen (18) male C57/BL6J mice obtained from Janvier, France, were used. At the time of experimentation the mice had reached an age of 9 weeks. The mice were acclimatized for one week in their new environment and offered regular chow diet (Altromin 1324, Brogaarden A/S, Denmark) and domestic quality tap water. Animals were housed six per cage during the study, in a light-, temperature-, and humidity-controlled room (12-hour light:12-hour dark cycle, lights on/off at 4 AM/4 PM hour; 22±1° C.; 50±10% relative humidity).
Dosing volume was 5 ml/kg, SC.
The compounds were dissolved in PBS buffer containing 0.1% BSA, pH 7.4. The subcutaneous injections were placed at the lower back. All mice were handled for 3 days prior to experimentation to acclimatize the animals to handling and injections.

lean NMRI mice = experiment: Acute effect on food intake in lean NMRI mice; format: in vivo; conditions: for Cumulative food intake following administration of a single dose: 50 nmol/kg s.c., mean ± S.E.M.
Description: All animals were housed in groups of four. The animal room environment were controlled (targeted ranges: temperature 22±2° C.; relative humidity 50±10%; light/dark cycle: 12 hours light, 12 hours dark, lights off from 14.00 to 02.00 hours). The mice had ad libitum access to Altromin (Brogaarden, Denmark) and tap water. Mice arrived 5 days prior to the initiation of the study and were transferred to the HM-2 system. From arrival day no food was provided in the cages thereby forcing the animals to learn to eat from the food channels thus habituating the animals faster to the HM-2 system. Food intake and body weight were measured from day −3 and throughout the study. Food intake data were collected using the HM-2 real-time food intake monitoring system, an online computerized feeding system using digital weighing cells. As the animals were uniquely identified with microchips, each individual mouse was identified by its corresponding microchip upon entry and exit from the food channel. The HM-2 system continuously and in real-time mode monitored feeding activity in two independent channels and recorded the start and finishing time of each meal and the amount of food consumed by each animal within the selected time interval without human intervention. The net food intake was calculated by the HM-2 control unit software (HMLab, MBRose, Faaborg, Denmark).
Doses were administered subcutaneously (dose volume 5 ml/kg), in the lower back region. Food intake was measured up to 68 hours following the dosing of the animals.

human GLP-2 receptor = molecular target: T1, human GLP-2 receptor (human, UniProt O95838 1-553, limits assumed); experiment: cell-based or functional assay
T1 sequence (looked up): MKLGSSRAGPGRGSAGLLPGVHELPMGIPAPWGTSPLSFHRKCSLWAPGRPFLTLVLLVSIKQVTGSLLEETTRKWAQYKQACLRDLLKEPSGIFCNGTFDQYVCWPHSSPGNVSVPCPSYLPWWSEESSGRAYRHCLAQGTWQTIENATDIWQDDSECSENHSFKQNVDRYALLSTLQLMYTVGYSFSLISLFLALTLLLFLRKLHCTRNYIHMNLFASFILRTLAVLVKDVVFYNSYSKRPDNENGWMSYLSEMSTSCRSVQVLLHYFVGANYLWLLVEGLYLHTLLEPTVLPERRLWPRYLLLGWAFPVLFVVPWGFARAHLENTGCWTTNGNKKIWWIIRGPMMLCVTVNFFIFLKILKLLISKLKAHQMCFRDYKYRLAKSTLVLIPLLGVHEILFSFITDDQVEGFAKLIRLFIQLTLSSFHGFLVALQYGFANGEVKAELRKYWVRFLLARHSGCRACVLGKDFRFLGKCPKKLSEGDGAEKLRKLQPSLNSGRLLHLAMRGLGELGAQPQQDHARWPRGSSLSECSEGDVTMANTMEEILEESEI

human GLP-1 receptor = human GLP-1 receptor (human, UniProt P43220 24-463, limits assumed); experiment: cell-based or functional assay

Molecule: HGDGSFTSELSTYLDNLAARDFINWLIQTKITD-NH2 (C-terminus assumed) [SEQ ID NO 7, R^1-HGDGSFTSELSTYLDNLAARDFINWLIQTKITDR^2]
- Total food intake (g/animal) (C57BL/6J mice [1]; single SC dose 0.3 mg/kg): 1.05 ± 0.41 g/animal
- Total food intake (g/animal) (C57BL/6J mice [1]; single SC dose 1 mg/kg): 0.47 ± 0.08 g/animal
- Total food intake (g/animal) (C57BL/6J mice [1]; single SC dose 3 mg/kg): 0.28 ± 0.12 g/animal
- food intake after […] compared to vehicle (C57BL/6J mice [1]; single dose 1-3 mg/kg): significantly reduced food intake

Molecule: R^1-HGDGSFTDELSTYLDALAARDFIAWLIQTKR^2 [SEQ ID NO 3]
- Gut wet weight (C57BL/6J mice [2]; Day 8, 3.0 mg/kg BID SC, mean ± S.E.M.): 3.3 ± 0.2 g
- gut wet weight compared to vehicle and teduglutide (C57BL/6J mice [2]; dosed twice daily for 8 days): significantly increased the gut wet weight
- Oral glucose tolerance test AUC, 0-120 min (C57BL/6J mice [3]; Day 7, 3.0 mg/kg BID SC, glucose 2 g/kg oral, mean ± S.E.M.): 503 ± 97 mmol·min/L
- blood glucose compared to vehicle and teduglutide (C57BL/6J mice [3]; dosed twice daily for 7 days): significantly reduced fasting blood glucose
- Cumulative food intake (C57BL/6J mice [4]; Day 0-7, 3.0 mg/kg BID SC, mean ± S.E.M.): 26.03 ± 2.49 g
- cumulative food intake compared to vehicle and teduglutide (C57BL/6J mice [4]; dosed twice daily for 7 days): considerably reduced cumulative food intake
- Total food intake (g/animal) (C57BL/6J mice [1]; single SC dose 0.3 mg/kg): 0.76 ± 0.37 g/animal
- Total food intake (g/animal) (C57BL/6J mice [1]; single SC dose 1 mg/kg): 0.66 ± 0.15 g/animal
- Total food intake (g/animal) (C57BL/6J mice [1]; single SC dose 3 mg/kg): 0.30 ± 0.08 g/animal

Molecule: R^1-HGDGSFTDELSTYLDNLAARDFIAWLIQTKITDR^2 [SEQ ID NO 5]
- Total food intake (g/animal) (C57BL/6J mice [1]; single SC dose 0.3 mg/kg): 0.69 ± 0.19 g/animal
- Total food intake (g/animal) (C57BL/6J mice [1]; single SC dose 1 mg/kg): 0.83 ± 0.18 g/animal
- Total food intake (g/animal) (C57BL/6J mice [1]; single SC dose 3 mg/kg): 0.26 ± 0.08 g/animal

Molecule: R^1-HGDGSFTSELSTYLDALAARDFINWLIQTKR^2 [SEQ ID NO 4]
- Total food intake (g/animal) (C57BL/6J mice [1]; single SC dose 0.3 mg/kg): 0.93 ± 0.06 g/animal
- Total food intake (g/animal) (C57BL/6J mice [1]; single SC dose 1 mg/kg): 0.79 ± 0.15 g/animal
- Total food intake (g/animal) (C57BL/6J mice [1]; single SC dose 3 mg/kg): 0.25 ± 0.08 g/animal

Molecule: R^1-H-G-D-G-S-F-T-S-E-L-S-T-Y-[K(C16-yE-)]-DALAARDFIAWLIQTKITDR^2 [SEQ ID NO 23]
- effect on body weight (lean C57BL/6J mice; 50 nmol/kg, after two days of administration, sustained up to seven days): significantly reduced the body weight
- Body weight change in percent to baseline body weight (lean C57BL/6J mice; Day 0): 100.0 ± 0.0%
- Body weight change in percent to baseline body weight (lean C57BL/6J mice; Day 2): 90.7 ± 0.8 %
- Body weight change in percent to baseline body weight (lean C57BL/6J mice; Day 5): 89.5 ± 1.8 %
- Body weight change in percent to baseline body weight (lean C57BL/6J mice; Day 7): 90.8 ± 1.4 %
- acute food intake compared to vehicle (lean NMRI mice; 12 and 24 hours after single dose of 50 nmol/kg): significantly reduce acute food intake to an similar extend as liraglutide
- Cumulative food intake following administration of a single dose (lean NMRI mice; 12 h after dosing): 1.82 ± 0.24 grams pr mice
- Cumulative food intake following administration of a single dose (lean NMRI mice; 24 h after dosing): 2.83 ± 0.22 grams pr mice
- Cumulative food intake following administration of a single dose (lean NMRI mice; 60 h after dosing): 11.43 ± 1.97 grams pr mice
- food intake compared to vehicle (lean NMRI mice; 60 hours after single dose of 50 nmol/kg): tends to still have an effect

Molecule: HGDGSFK([γGlu-Palmitoyl])SELSTYLDALAARDFIAWLIQTKITD [SEQ ID NO 19]
- GLP-2R, EC50 (human GLP-2 receptor): > 100 nM
- GLP-1R, EC50 (human GLP-1 receptor): > 10 nM

Molecule: HGDGSFTSELK([γGlu-Palmitoyl])TYLDALAARDFIAWLIQTKITD [SEQ ID NO 21]
- GLP-2R, EC50 (human GLP-2 receptor): 4.25 nM
- GLP-1R, EC50 (human GLP-1 receptor): > 10 nM

Molecule: HGDGSFTSELSK([γGlu-Palmitoyl])YLDALAARDFIAWLIQTKITD [SEQ ID NO 22]
- GLP-2R, EC50 (human GLP-2 receptor): 6.61 nM
- GLP-1R, EC50 (human GLP-1 receptor): 0.543 nM

Molecule: HGDGSFTSELSTYK([γGlu-Palmitoyl])DALAARDFIAWLIQTKITD [SEQ ID NO 23]
- GLP-2R, EC50 (human GLP-2 receptor): 1.06 nM
- GLP-1R, EC50 (human GLP-1 receptor): 0.169 nM

Molecule: HGDGSFTSELSTYLDK([γGlu-Palmitoyl])LAARDFIAWLIQTKITD [SEQ ID NO 24]
- GLP-2R, EC50 (human GLP-2 receptor): 5.6 nM
- GLP-1R, EC50 (human GLP-1 receptor): 0.338 nM

Molecule: HGDGSFTSELSTYLDAK([γGlu-Palmitoyl])AARDFIAWLIQTKITD [SEQ ID NO 25]
- GLP-2R, EC50 (human GLP-2 receptor): 1.93 nM
- GLP-1R, EC50 (human GLP-1 receptor): 0.319 nM

Molecule: HGDGSFTSELSTYLDALAAK([γGlu-Palmitoyl])DFIAWLIQTKITD [SEQ ID NO 26]
- GLP-2R, EC50 (human GLP-2 receptor): > 100 nM
- GLP-1R, EC50 (human GLP-1 receptor): 0.658 nM

Reference: US20180280480A1, “COMPOSITIONS AND PEPTIDES HAVING DUAL GLP-1R AND GLP-2R AGONIST ACTIVITY” (priority 2014, published 2018)
